Where “and” joins values, the source holds several entries; their conditions need not be identical. Equal values may be shown once.
Tested on: 633275-114-R-J1-PDC complex spheroids, viability
Experiment: Anticancer human tumor 633275-114-R-J1-PDC patient-derived endometrial adenocarcinoma cell line growth inhibition [GQUAD]
Conditions: for viability, T/C: stronger effect = lower value
Excerpt: DNA G-quadruplex Stabilizer Agents in Combinations in Complex Spheroids
A high-throughput screen of multi-cell type tumor spheroids was designed to identify active combinations of DNA G-quadruplex stabilizer agents and targeted small molecules. Complex spheroids include a stromal component modeled by human endothelial cells (HUVEC) and fibroblasts modeled by human mesenchymal stem cells (MSCs). The concentration ranges selected for each drug and investigational agent were based upon clinically achievable concentrations if the clinical Cmax of the agent was known.
Compounds. The drugs and investigational agents: pidnarulex (CX-5461; NSC782164), APTO-253 (NSC789042), BRACO-19 (NSC847499), peposertib (NSC802822), ceralasertib (NSC780249), elimusertib (NSC800525), camonsertib (NSC841442), AZD-1390 (NSC803789), olaparib (NSC753686), talazoparib (NSC767125), ART-558 (NSC835418), sotorasib (NSC818433), MRTX-1133 (NSC836407), SN-38 (NSC673596), topotecan (NSC609699), etoposide (NSC141540), doxorubicin (NSC123127), gemcitabine (NSC613327), 5-fluorouracil (NSC19893), paclitaxel (NSC125973), vemurafenib (NSC761431), panobinostat (NSC761190), R-306465 (JNJ-16241199; NSC773264), adavosertib (NSC754352), TP-3654 (NSC805149), carboplatin (NSC241240), KSQ-4279 (NSC840948), and staurosporine (NSC755774) were obtained from the National Cancer Institute (NCI) Developmental Therapeutics Program Chemical Repository (34). The FDA-approved anticancer drug set is available from the NCI Developmental Therapeutics Program. […] The stock solutions were prepared in dimethyl sulfoxide (DMSO, Sigma-Aldrich, St. Louis, MO, cat. D2650) at 800-fold the tested concentration and stored at -70 degrees C prior to their use. All drugs and investigational agents were tested over a range starting from a high concentration at or near the clinical Cmax and decreasing in half-log increments. If the clinical Cmax for an agent had not been determined, the highest concentration tested was 10 microM.
2.3 Cell Culture. All cells were maintained in an incubator at 37 degrees C and 5% CO2 with 95% humidity. The PDC lines were cultured according to standard operating procedures established by the NCI PDMR. All PDCs were thawed and cultured in Matrigel-coated flasks prepared with a working solution of 1X Ham's F-12 nutrient mix, without supplementation (Invitrogen, cat. 11765054), 100 U/mL penicillin-streptomycin (Invitrogen, cat. 15140122), and 2.5% Matrigel (Corning Inc., cat. 354248) for the first three passages. The 857933-349-R-J2-PDC line was cultured in 6C/Colon 1B media, which includes advanced DMEM/F-12 (Thermo Fisher Scientific, cat. 12634028), 10 mM HEPES (Thermo Fisher Scientific, cat. 15630080), 1X GlutaMAX supplement (Thermo Fisher Scientific, cat. 35050061), 0.1 mg/mL primocin (InvivoGen, cat. ant-pm-2), 10% defined fetal bovine serum, heat inactivated (HyClone Laboratories Inc., cat. SH30070.03HI), 50% L-WRN conditioned media (ATCC, cat. CRL-3276), 1.25 mM N-Acetyl-L-cysteine (Sigma-Aldrich, cat. A9165), 10 mM nicotinamide (Sigma-Aldrich, cat. N0636), 1X B-27 supplement (Thermo Fisher Scientific, cat. 17504044), 1X N-2 supplement (Thermo Fisher Scientific, cat. 17502048), 10 microM Y-27632 dihydrochloride (Tocris Bioscience, cat. 1254), and 50 ng/mL human EGF recombinant protein (Thermo Fisher Scientific, cat. PHG0311). The 485176-168-R4-J1-PDC line was cultured in Panc media, which includes all 6C/Colon 1B media components plus 100 ng/mL human FGF-10 (Thermo Fisher Scientific, cat. 100-26), 500 nM SB-431542 (Selleckchem, cat. S1067), and gastrin (Tocris, cat. 3006).
[…]

[1] = curve of first compound, second compound 0.0316 µM
[2] = curve of first compound, second compound 0.1 µM
[3] = curve of first compound, second compound 0.316 µM
[4] = curve of first compound, second compound 1 µM
[5] = curve of first compound, second compound 3.16 µM
[6] = curve of first compound, second compound 10 µM
[7] = second compound 0.0316 µM, first compound 0.0316 µM
[8] = second compound 0.0316 µM, first compound 0.1 µM
[9] = second compound 0.0316 µM, first compound 0.316 µM
[10] = second compound 0.0316 µM, first compound 1 µM
[11] = second compound 0.0316 µM, first compound 3.16 µM
[12] = second compound 0.0316 µM, first compound 10 µM
[13] = second compound 0.1 µM, first compound 0.0316 µM
[14] = second compound 0.1 µM, first compound 0.1 µM
[15] = second compound 0.1 µM, first compound 0.316 µM
[16] = second compound 0.1 µM, first compound 1 µM
[17] = second compound 0.1 µM, first compound 3.16 µM
[18] = second compound 0.1 µM, first compound 10 µM
[19] = second compound 0.316 µM, first compound 0.0316 µM
[20] = second compound 0.316 µM, first compound 0.1 µM
[21] = second compound 0.316 µM, first compound 0.316 µM
[22] = second compound 0.316 µM, first compound 1 µM
[23] = second compound 0.316 µM, first compound 3.16 µM
[24] = second compound 0.316 µM, first compound 10 µM
[25] = second compound 1 µM, first compound 0.0316 µM
[26] = second compound 1 µM, first compound 0.1 µM
[27] = second compound 1 µM, first compound 0.316 µM
[28] = second compound 1 µM, first compound 1 µM
[29] = second compound 1 µM, first compound 3.16 µM
[30] = second compound 1 µM, first compound 10 µM
[31] = second compound 3.16 µM, first compound 0.0316 µM
[32] = second compound 3.16 µM, first compound 0.1 µM
[33] = second compound 3.16 µM, first compound 0.316 µM
[34] = second compound 3.16 µM, first compound 1 µM
[35] = second compound 3.16 µM, first compound 3.16 µM
[36] = second compound 3.16 µM, first compound 10 µM
[37] = second compound 10 µM, first compound 0.0316 µM
[38] = second compound 10 µM, first compound 0.1 µM
[39] = second compound 10 µM, first compound 0.316 µM
[40] = second compound 10 µM, first compound 1 µM
[41] = second compound 10 µM, first compound 3.16 µM
[42] = second compound 10 µM, first compound 10 µM
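Also: spheroids exposed to the agents for seven days.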
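For viability, T/C in this document: percent of DMSO vehicle control viability which is 100%.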

C=CC(=O)N1CCN(c2nc(=O)n(-c3c(C)ccnc3C(C)C)c3nc(-c4c(O)cccc4F)c(F)cc23)C(C)C1 (stereo not given) + Cc1cnc(CNC(=O)c2c(=O)c3ccc(N4CCCN(C)CC4)nc3n3c2sc2ccccc23)cn1
IC50 [1]: > 10 µM | IC50 [2]: > 10 µM | IC50 [3]: < 0.0316 µM | IC50 [4]: < 0.0316 µM | IC50 [5]: < 0.0316 µM | IC50 [6]: < 0.0316 µM | viability, T/C [7]: 67.1% | viability, T/C [8]: 62.3% | viability, T/C [9]: 78.3% | viability, T/C [10]: 69% | viability, T/C [11]: 65.4% | viability, T/C [12]: 68.1% | viability, T/C [13]: 57.4% | viability, T/C [14]: 57.8% | viability, T/C [15]: 55.4% | viability, T/C [16]: 57% | viability, T/C [17]: 59.8% | viability, T/C [18]: 51.6% | viability, T/C [19]: 46.8% | viability, T/C [20]: 44.9% | viability, T/C [21]: 47.6% | viability, T/C [22]: 53.5% | viability, T/C [23]: 54.1% | viability, T/C [24]: 46.8% | viability, T/C [25]: 41.6% | viability, T/C [26]: 48.2% | viability, T/C [27]: 45.7% | viability, T/C [28]: 42.9% | viability, T/C [29]: 47.7% | viability, T/C [30]: 41% | viability, T/C [31]: 37.3% | viability, T/C [32]: 36.5% | viability, T/C [33]: 39.4% | viability, T/C [34]: 42.6% | viability, T/C [35]: 42.4% | viability, T/C [36]: 37.6% | viability, T/C [37]: 32.3% | viability, T/C [38]: 34.1% | viability, T/C [39]: 34% | viability, T/C [40]: 35.9% | viability, T/C [41]: 39.7% | viability, T/C [42]: 30.2%

Nc1ccn(C2OC(CO)C(O)C2(F)F)c(=O)n1 (stereo not given)
viability, T/C (compound 0.0316 µM): 30.6% and 26.5% and 26.6% | viability, T/C (compound 0.1 µM): 24.7% and 22.3% and 23.2% | viability, T/C (compound 0.316 µM): 28.7% and 23.9% and 24.1% | viability, T/C (compound 1 µM): 25.4% and 23.2% and 21.9% | viability, T/C (compound 3.16 µM): 27.3% and 23.6% and 20.7% | viability, T/C (compound 10 µM): 21.7% and 17.1% and 18.9% | IC50 (curve of compound): < 0.0316 µM

COc1ncnc(C2CC2)c1-c1ncc2cnn(Cc3ccc(-c4nc(C(F)(F)F)cn4C(C)C)cc3)c2n1
viability, T/C (compound 0.0316 µM): 91.5% and 91.7% and 98.3% | viability, T/C (compound 0.1 µM): 95.1% and 89.5% and 100% | viability, T/C (compound 0.316 µM): 86.6% and 85.3% and 100% | viability, T/C (compound 1 µM): 90.3% and 101% and 82.7% | viability, T/C (compound 3.16 µM): 98% and 106% and 95.6% | viability, T/C (compound 10 µM): 85% and 87.1% and 84.9% | IC50 (curve of compound): > 10 µM

COc1cc(C2c3cc4c(cc3C(OC3OC5COC(C)OC5C(O)C3O)C3COC(=O)C23)OCO4)cc(OC)c1O (stereo not given) + Cc1cnc(CNC(=O)c2c(=O)c3ccc(N4CCCN(C)CC4)nc3n3c2sc2ccccc23)cn1
IC50 [1]: 0.185 µM | IC50 [2]: 0.0866 µM | IC50 [3]: < 0.0316 µM | IC50 [4]: < 0.0316 µM | IC50 [5]: < 0.0316 µM | IC50 [6]: < 0.0316 µM | viability, T/C [7]: 53.3% | viability, T/C [8]: 55.2% | viability, T/C [9]: 47.4% | viability, T/C [10]: 41.3% | viability, T/C [11]: 36.6% | viability, T/C [12]: 27.8% | viability, T/C [13]: 54.4% | viability, T/C [14]: 45.2% | viability, T/C [15]: 50.1% | viability, T/C [16]: 40% | viability, T/C [17]: 31.8% | viability, T/C [18]: 29.4% | viability, T/C [19]: 43.4% | viability, T/C [20]: 45.8% | viability, T/C [21]: 43.6% | viability, T/C [22]: 41.4% | viability, T/C [23]: 31.9% | viability, T/C [24]: 28.1% | viability, T/C [25]: 40.9% | viability, T/C [26]: 41% | viability, T/C [27]: 43.5% | viability, T/C [28]: 41% | viability, T/C [29]: 34.1% | viability, T/C [30]: 28.4% | viability, T/C [31]: 31.7% | viability, T/C [32]: 32.9% | viability, T/C [33]: 35.9% | viability, T/C [34]: 32.7% | viability, T/C [35]: 34.2% | viability, T/C [36]: 25.5% | viability, T/C [37]: 28.2% | viability, T/C [38]: 31.4% | viability, T/C [39]: 28.7% | viability, T/C [40]: 32.9% | viability, T/C [41]: 27.2% | viability, T/C [42]: 20.9%

COc1ccc([C@@H](O)c2cc(-c3ncnc4cc(N5CCOCC5)ccc34)c(F)cc2Cl)nn1 + Cc1cnc(CNC(=O)c2c(=O)c3ccc(N4CCCN(C)CC4)nc3n3c2sc2ccccc23)cn1
IC50 [1]: 0.179 µM | IC50 [2]: 0.0603 µM | IC50 [3]: < 0.0316 µM | IC50 [4]: < 0.0316 µM | IC50 [5]: < 0.0316 µM | IC50 [6]: < 0.0316 µM | viability, T/C [7]: 59.8% | viability, T/C [8]: 60.3% | viability, T/C [9]: 40.9% | viability, T/C [10]: 29.2% | viability, T/C [11]: 19.2% | viability, T/C [12]: 12.2% | viability, T/C [13]: 51.5% | viability, T/C [14]: 50.5% | viability, T/C [15]: 36.1% | viability, T/C [16]: 25% | viability, T/C [17]: 18.8% | viability, T/C [18]: 11.2% | viability, T/C [19]: 48.6% | viability, T/C [20]: 45.7% | viability, T/C [21]: 30.1% | viability, T/C [22]: 24.9% | viability, T/C [23]: 20.6% | viability, T/C [24]: 11.9% | viability, T/C [25]: 40.2% | viability, T/C [26]: 37.9% | viability, T/C [27]: 28.4% | viability, T/C [28]: 24.6% | viability, T/C [29]: 18.1% | viability, T/C [30]: 11.1% | viability, T/C [31]: 34% | viability, T/C [32]: 29.4% | viability, T/C [33]: 27.6% | viability, T/C [34]: 21.8% | viability, T/C [35]: 18.7% | viability, T/C [36]: 11.5% | viability, T/C [37]: 30.8% | viability, T/C [38]: 27.5% | viability, T/C [39]: 28.6% | viability, T/C [40]: 19.9% | viability, T/C [41]: 16% | viability, T/C [42]: 3.93%

Source: PubChem BioAssay AID2060505 (Molecular Pharmacology Branch, DTP, NCI, 2025)
